tested on: Panc-1 cell line; assay: Gene expression profile using RTQ-PCR; assay type: cell-based; details: Panc1, RTQ-PCR
Protocol: The objective of the experiment was to evaluate the synergistic effect of drug combination (Gemcitabine with […]) as compared to individual use of the same. The synergistic effect of the compound or drug combination in the Panc-1 cell line was measured in terms of gene expression and expressed as fold changes as compared to the cell control with no drug treatment. Methodology: Cell lines treated with drugs (Gemcitabine, […] or both) were used for total RNA isolation using a commercial RNA extraction kit (Qiagen Corporation, Germany). […] This was followed by real time quantitative polymerase chain reaction (RTQ PCR) using gene specific primers and standard thermal program of initial denaturation at 95° C. for 5 mins and 40 cycles of 95° C. for 10 seconds, followed by […] for 30 seconds (Realplex PCR machine from Eppendorf, Germany). Quantitative measurement of products made during PCR cycles was normalized against a housekeeping gene (Actin) and used to measure the gene expression as fold changes as compared to respective control (FIG. 5).

| Compound | DLG5 gene expression vs control cells with no drug treatment [log 2 fold ratio] | E2F1 gene expression vs control cells with no drug treatment [log 2 fold ratio] | MAPK1 gene expression vs control cells with no drug treatment [log 2 fold ratio] | PDCD2 gene expression vs control cells with no drug treatment [log 2 fold ratio] | POLB gene expression vs control cells with no drug treatment [log 2 fold ratio] | PTK7 gene expression vs control cells with no drug treatment [log 2 fold ratio] | PTN gene expression vs control cells with no drug treatment [log 2 fold ratio] | RASA1 gene expression vs control cells with no drug treatment [log 2 fold ratio] | REV3L gene expression vs control cells with no drug treatment [log 2 fold ratio] | SSTR2 gene expression vs control cells with no drug treatment [log 2 fold ratio] |
| --- | --- | --- | --- | --- | --- | --- | --- | --- | --- | --- |
| CN1CCC(c2c(O)cc(O)c3c(=O)cc(-c4ccccc4Cl)oc23)C(O)C1 (stereo not drawn) [drawing 5] | −1.19 | −0.62 | −2.31 | 0.50 | 0.34 | 0.16 | −0.24 | −1.10 | −1.42 | −2.98 |
| CN1CC[C@@H](c2c(O)cc(O)c3c(=O)cc(-c4ccc(C(F)(F)F)cc4Cl)oc23)[C@@H]1CO.Cl [drawing 3] | −1.01 | −0.43 | 0.64 | 0.77 | −0.05 | 0.30 | 0.40 | 0.10 | −0.13 | −0.69 |
| Nc1ccn([C@@H]2O[C@H](CO)[C@@H](O)C2(F)F)c(=O)n1 [drawing 1] | −0.53 | 0.98 | −0.18 | −1.27 | −0.94 | −0.53 | 0.68 | −0.04 | −0.28 | −1.17 |
| CC[C@H](CO)Nc1nc(NCc2ccccc2)c2ncn(C(C)C)c2n1 [drawing 2] | −0.71 | 0.03 | −0.29 | −0.05 | −0.26 | 0.11 | −0.28 | −0.41 | −0.27 | −0.37 |

same assay, conditions: Panc1, RTQ-PCR

| Compound | STAT4 gene expression vs control cells with no drug treatment [log 2 fold ratio] | CDK2 gene expression vs control cells with no drug treatment [log 2 fold ratio] | CDK4 gene expression vs control cells with no drug treatment [log 2 fold ratio] | CDK6 gene expression vs control cells with no drug treatment [log 2 fold ratio] | CDK8 gene expression vs control cells with no drug treatment [log 2 fold ratio] | DDIT4 gene expression vs control cells with no drug treatment [log 2 fold ratio] | RRM1 gene expression vs control cells with no drug treatment [log 2 fold ratio] | RRM2 gene expression vs control cells with no drug treatment [log 2 fold ratio] | p14 gene expression vs control cells with no drug treatment [log 2 fold ratio] | p18 gene expression vs control cells with no drug treatment [log 2 fold ratio] |
| --- | --- | --- | --- | --- | --- | --- | --- | --- | --- | --- |
| CN1CCC(c2c(O)cc(O)c3c(=O)cc(-c4ccccc4Cl)oc23)C(O)C1 (stereo not drawn) [drawing 5] | −1.39 | – | – | – | – | – | – | – | – | – |
| CN1CC[C@@H](c2c(O)cc(O)c3c(=O)cc(-c4ccc(C(F)(F)F)cc4Cl)oc23)[C@@H]1CO.Cl [drawing 12] | – | 0.96 | 0.73 | 1.48 | 0.20 | −0.31 | −0.24 | 0.04 | −0.59 | −0.12 |
| CN1CC[C@@H](c2c(O)cc(O)c3c(=O)cc(-c4ccc(C(F)(F)F)cc4Cl)oc23)[C@@H]1CO.Cl [drawing 3] | −1.52 | – | – | – | – | – | – | – | – | – |
| CN1CCC(c2c(O)cc(O)c3c(=O)cc(-c4ccccc4Cl)oc23)C(O)C1 (stereo not drawn) [drawing 14] | – | 0.74 | 0.49 | 1.31 | −0.99 | −4.21 | 0.03 | 0.38 | −0.10 | −1.14 |
| CC[C@H](CO)Nc1nc(NCc2ccccc2)c2ncn(C(C)C)c2n1 [drawing 11] | – | 0.29 | −0.06 | 0.75 | 0.82 | −0.84 | 0.11 | 0.63 | −0.05 | 0.56 |
| Nc1ccn([C@@H]2O[C@H](CO)[C@@H](O)C2(F)F)c(=O)n1 [drawing 10] | – | 0.50 | −0.93 | −0.53 | 0.86 | 1.01 | 0.25 | – | −0.17 | 1.06 |
| CN1CC[C@@H](c2c(O)cc(O)c3c(=O)cc(-c4ccccc4Cl)oc23)[C@@H]1CO.Cl | – | −0.21 | −0.44 | −0.23 | 0.11 | −1.88 | 0.18 | 0.16 | −0.50 | −0.17 |
| Nc1ccn([C@@H]2O[C@H](CO)[C@@H](O)C2(F)F)c(=O)n1 [drawing 1] | −0.54 | – | – | – | – | – | – | – | – | – |
| CC[C@H](CO)Nc1nc(NCc2ccccc2)c2ncn(C(C)C)c2n1 [drawing 2] | −1.66 | – | – | – | – | – | – | – | – | – |

same assay, conditions: Panc1, RTQ-PCR

| Compound | p27 gene expression vs control cells with no drug treatment [log 2 fold ratio] |
| --- | --- |
| CN1CC[C@@H](c2c(O)cc(O)c3c(=O)cc(-c4ccc(C(F)(F)F)cc4Cl)oc23)[C@@H]1CO.Cl [drawing 12] | −0.30 |
| CN1CCC(c2c(O)cc(O)c3c(=O)cc(-c4ccccc4Cl)oc23)C(O)C1 (stereo not drawn) [drawing 14] | −0.01 |
| CC[C@H](CO)Nc1nc(NCc2ccccc2)c2ncn(C(C)C)c2n1 [drawing 11] | −0.04 |
| Nc1ccn([C@@H]2O[C@H](CO)[C@@H](O)C2(F)F)c(=O)n1 [drawing 10] | −0.16 |
| CN1CC[C@@H](c2c(O)cc(O)c3c(=O)cc(-c4ccccc4Cl)oc23)[C@@H]1CO.Cl | −0.60 |

Reference: patent US20100152129A1 (priority 2008, published 2010)
